The text below walks through data of US20230365492A1, “LITHIUM ORGANIC ACID-AMINO ACID SALT, AND CRYSTAL FORM, COMPOSITION AND APPLICATION THEREOF” (ANYU BIOTECHNOLOGY (HANGZHOU) CO., LTD., priority 2020, published 2023).

One data set relates to tau protein. The settings on record: SH-SY5Y cells, 3 hours, Western blot. The text has this:
(§1) GAPDH was used as an internal reference protein.

In another data set the test system is Notch protein. Conditions: SH-SY5Y cells, 3 hours, concentration of less than 50 mM, Western blot. The text has this:
GAPDH was used as an internal reference protein. A Notch protein is an important signaling molecule at the downstream of GSK-3, and plays an important positive role in regulating the proliferation and survival of cells.
(In general: A western blot detects proteins with antibodies after separation by electrophoresis.)

Data set [1] has as its target GSK-3β (Cricetulus griseus, UniProt A0A061I155). Conditions: CHO cells, treated 2 hours, 0-50 mM (vs lithium isobutyrate) or 0-90 mM (vs lithium carbonate), Western blot, GAPDH reference.
Description: The cells were continuously subjected to lysis by an RIPA buffer containing a protease inhibitor, followed by detection by Western blot with phosphorylated GSK-3β (Ser9) or a total GSK-3β antibody as an antibody.
GAPDH (glyceraldehyde-3-phosphate dehydrogenase) was used as an internal reference protein.
Another data set deals with HEK293 cells. Conditions: 5 mM, 4 hours, confocal microscope.
The next data set deals with β-catenine. The settings on record: CHO cells, 0-50 mM, 2 hours, Western blot.
Description: as §1

In data set [2] the target is GSK-3β (Mus musculus, UniProt Q9WV60). Conditions: APP/PS1 mice, gavage, 0.02 and 0.08 mmol/mouse, 4 hours after administration. How it is done:
Brain tissues were extracted, and a homogenate of the brain tissues was prepared.

Entries after “also recorded” stand apart in the source; their conditions may differ.

Chain of GSK-3β (Cricetulus griseus, UniProt A0A061I155) (A0A061I155 1-428): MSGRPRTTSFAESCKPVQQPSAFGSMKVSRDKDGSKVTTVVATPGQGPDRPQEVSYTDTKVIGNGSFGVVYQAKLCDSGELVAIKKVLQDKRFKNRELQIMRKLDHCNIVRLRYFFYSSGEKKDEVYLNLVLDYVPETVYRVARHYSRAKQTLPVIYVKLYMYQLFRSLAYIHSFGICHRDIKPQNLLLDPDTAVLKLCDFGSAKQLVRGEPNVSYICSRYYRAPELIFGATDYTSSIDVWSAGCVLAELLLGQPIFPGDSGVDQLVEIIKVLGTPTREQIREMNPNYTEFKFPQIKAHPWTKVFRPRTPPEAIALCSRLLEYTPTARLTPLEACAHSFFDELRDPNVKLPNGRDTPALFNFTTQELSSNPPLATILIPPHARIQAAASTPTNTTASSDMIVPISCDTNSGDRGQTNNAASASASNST
Chain of GSK-3β (Mus musculus, UniProt Q9WV60) (Q9WV60 whole entry): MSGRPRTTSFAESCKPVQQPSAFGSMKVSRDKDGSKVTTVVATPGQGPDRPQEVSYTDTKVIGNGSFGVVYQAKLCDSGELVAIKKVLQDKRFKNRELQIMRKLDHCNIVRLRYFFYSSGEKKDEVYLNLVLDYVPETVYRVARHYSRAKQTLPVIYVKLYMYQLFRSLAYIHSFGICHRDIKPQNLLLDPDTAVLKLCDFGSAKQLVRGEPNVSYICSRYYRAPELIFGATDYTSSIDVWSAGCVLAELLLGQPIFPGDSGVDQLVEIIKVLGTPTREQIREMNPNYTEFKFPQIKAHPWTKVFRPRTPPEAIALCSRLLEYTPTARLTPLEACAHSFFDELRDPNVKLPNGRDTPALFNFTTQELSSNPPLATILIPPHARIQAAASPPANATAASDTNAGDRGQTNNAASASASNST
Description for Kunming mice: According to the Horn's method, 40 Kunming mice (with the weight of 19.8-22 g, including half male mice and half female mice) were divided into four groups at an equal ratio of 2.15, including a 464 mg/kg dose group, a 1,000 mg/kg dose group, a 2,150 mg/kg dose group and a 4,640 mg/kg dose group (each group was orally administrated at one time and includes 10 mice with half male mice and half female mice). […] 24 hours later, poisoning symptoms, occurrence time and death time of the experimental animals were observed every day for an observation period of 14 days. Dead animals and other animals sacrificed within 14 days were subjected to gross anatomy. When gross pathological changes were observed by naked eyes, pathological examination was performed.

With `O=C([O-])[O-].[Li+].[Li+]` [lithium carbonate, reference compound], the “concentration at which an effect on total tau protein expression is seen” value in the data set on tau protein is 6.25 mM. In the data set with Notch protein, the Notch protein expression result is reported as “obvious inhibition effect on the Notch protein expression”. The “inhibition of the activity of GSK-3β (phosphorylated GSK-3β (Ser9) expression)” value against GSK-3β [1] is recorded as “obviously lower than that of the lithium isobutyrate-L-proline salt”. The “change in morphology of HEK293 cells” value in the data set on HEK293 cells is reported as “obvious change in morphology”. The “symptoms of experimental animals” value with Kunming mice (oral, 464 mg/kg and 1,000 mg/kg dose groups) is “no abnormalities”. The “symptoms and death of experimental animals” value with Kunming mice (oral, 2,150 mg/kg and 4,640 mg/kg dose groups, within 24 hours) is “abnormal posture symptoms within 24 hours and are all dead”.

Turning to lithium isobutyrate-L-proline salt, the “total tau protein expression” value with tau protein (0-50 mM) is “significantly decrease the total tau protein expression in a concentration-dependent manner”. In the data set on tau protein, the “concentration at which an effect on total tau protein expression is seen” value came to 3.125 mM. In the data set on β-catenine, the “cell survival related protein (β-catenine) expression” value was “significantly increases the cell survival related protein (β-catenine) expression in a dose-dependent manner”. Also, in the data set with Notch protein, the Notch protein expression result is on record as “no influence on the Notch expression”. In addition, the “effect on phosphorylated GSK-3β (Ser9) expression in brain tissues” value at GSK-3β [2] is given as “significantly better than that of the lithium carbonate”. Also, on GSK-3β [1], the “inhibition of the activity of GSK-3β (phosphorylated GSK-3β (Ser9) expression)” value was “significantly decreased phosphorylated GSK-3β (Ser9) expression in a dose-dependent manner; also recorded: dose-dependent inhibition effect on the GSK-3β, and the inhibition effect is stable”.
